Assay: Distribution of Perfluoro-compound in Organs (gas chromatography)
Type: in vivo, Wister-strain male rats
Conditions: 4 g/kg, tail vein; for Residual Rate of perfluorobicyclo compound: 3 Months after administration
Procedure: Using Wister-strain male rats weighing 120-130 g, the emulsion prepared in Example 1 was administered into the tail vein [at 4 g/kg as perfluoro-4-methyloctahydroquinolidine], and for a period of 3 months after the administration, the content of said compound in the liver, spleen and fat tissues due to uptake were measured by means of gas chromatography.

SMILES: FC(F)(F)C1(F)N2C(F)(F)C(F)(F)C(F)(F)C(F)(F)C2(F)C(F)(F)C(F)(F)C1(F)F (centres unmarked) [perfluoro-4-methyloctahydroquinolidine]
- adverse influence on the liver or spleen organ (3 months): no evidence of adverse influence on the liver or spleen organ
- uptake by the reticulo-endothelial organ and disappearance (rat): taken up in greater amounts by the reticulo-endothelial organ shortly after the administration, but soon disappeared rapidly
- Residual Rate of perfluorobicyclo compound (Liver): 0.30%
- Residual Rate of perfluorobicyclo compound (Spleen): 0.09%
- half-life (in vivo, iv, 4000 mg/kg, rat): 176 h

Reference: patent US4425347A, “Perfluorobicyclo compound emulsion preparation” (priority 1982, dated 1984)
